This passage reports EC50 results from patent publication US11708348B2, “Protease inhibitors for treatment of coronavirus infections” (The Scripps Research Institute, priority 2021, dated 2023).

In the first assay the test system is SARS-CoV-2 strain USA-WA1/2020. Kind of assay: microbe, parasite or virus in culture. As to conditions: Severe acute respiratory syndrome coronavirus 2, HeLa-ACE2, 24 h, HeLa-ACE2 cells, SARS-CoV-2 infection, 24 h; class symbols; read-out: EC50, uM (Hela). The assay is classed as cell-based.
As to `Cc1ccccc1NC(=O)C(=O)N[C@@H](Cc1ccccn1)C(=O)N[C@@H](C[C@@H]1CCNC1=O)C(=O)COc1c(F)c(F)cc(F)c1F` [Compound 148, N1-((S)-1-oxo-1-(((S)-3-oxo-1-((S)-2-oxopyrrolidin-3-yl)-4-(2,3,5,6-tetrafluorophenoxy)butan-2-yl)amino)-3-(pyridin-2-yl)propan-2-yl)-N2-(o-tolyl)oxalamide], the EC50 (in general, the concentration that produces a half-maximal response) lay within 0.05 to 0.2 µM.

As for `CC(C)C[C@H](NC(=O)C(=O)Nc1cccc(Cl)c1)C(=O)N[C@@H](C[C@@H]1CCNC1=O)C(=O)COc1c(F)c(F)cc(F)c1F` [Compound 52, N1-(3-chlorophenyl)-N2-((S)-4-methyl-1-oxo-1-(((S)-3-oxo-1-((S)-2-oxopyrrolidin-3-yl)-4-(2,3,5,6-tetrafluorophenoxy)butan-2-yl)amino)pentan-2-yl)oxalamide], the concentration for a half-maximal effect (EC50) was 0.05 to 0.2 µM.

On to `O=C(N[C@@H](Cc1ccc(C(F)(F)F)cc1)C(=O)N[C@@H](C[C@@H]1CCNC1=O)C(=O)COc1c(F)c(F)cc(F)c1F)c1cc2cc(F)ccc2[nH]1` [Compound 17, 5-fluoro-N-((S)-1-oxo-1-(((S)-3-oxo-1-((S)-2-oxopyrrolidin-3-yl)-4-(2,3,5,6-tetrafluorophenoxy)butan-2-yl)amino)-3-(4-(tri-fluoromethyl)phenyl)-propan-2-yl)-1H-indole-2-carboxamide], for which the EC50 fell in the range of 0.2 to 0.5 µM.

`CC(C)C[C@H](NC(=O)C(=O)NC1COC1)C(=O)N[C@@H](C[C@@H]1CCNC1=O)C(=O)COC(F)(F)F` [Compound 244, N1-((S)-4-methyl-1-oxo-1-(((S)-3-oxo-1-((S)-2-oxopyrrolidin-3-yl)-4-(trifluoromethoxy)butan-2-yl)amino)pentan-2-yl)-N2-(oxetan-3-yl)oxalamide]: the EC50 was in the range of 0.05 to 0.2 µM.

In the case of `CC(C)C[C@H](NC(=O)C(=O)NC1CCCCC1)C(=O)N[C@@H](C[C@@H]1CCNC1=O)C(=O)COc1c(F)c(F)cc(F)c1F` [Compound 69, N1-cyclohexyl-N2-((S)-4-methyl-1-oxo-1-(((S)-3-oxo-1-((S)-2-oxopyrrolidin-3-yl)-4-(2,3,5,6-tetra-fluorophenoxy)butan-2-yl)amino)pentan-2-yl)oxalamide], the EC50 was 0.05 to 0.2 µM.

In the case of `O=C(N[C@@H](CC1CCCCC1)C(=O)N[C@@H](C[C@@H]1CCNC1=O)C(=O)COc1c(F)c(F)cc(F)c1F)c1cc(-c2ccccc2F)on1` [Compound 110, N-((S)-3-cyclohexyl-1-oxo-1-(((S)-3-oxo-l-((S)-2-oxopyrrolidin-3-yl)-4-(2,3,5,6-tetrafluorophenoxy)butan-2-yl)amino)propan-2-yl)-5-(2-fluorophenyl)isoxazole-3-carboxamide], the EC50 was 0.2 to 0.5 µM.

Take `CC(C)C[C@@H](OCC(C)(C)O)C(=O)N1CC2(CC2)C[C@H]1C(=O)N[C@@H](C[C@@H]1CCNC1=O)C(=O)COC(F)(F)F` [Compound 334, (S)-5-((R)-2-(2-hydroxy-2-methylpropoxy)-4-methylpentanoyl)-N-((S)-3-oxo-1-((S)-2-oxopyrrolidin-3-yl)-4-(trifluoromethoxy)butan-2-yl)-5-azaspiro[2.4]heptane-6-carboxamide]: the EC50 fell in the range of 0.05 to 0.2 µM.

Take `Cc1ccccc1NC(=O)C(=O)N[C@@H](CC(C)C)C(=O)N[C@@H](C[C@@H]1CCNC1=O)C(=O)COC(F)(F)F` [Compound 206, N^1—((S)-4-methyl-1-oxo-1-(((S)-3-oxo-1-((S)-2-oxopyrrolidin-3-yl)-4-(trifluoromethoxy)butan-2-yl)amino)pentan-2-yl)-N^2-(o-tolyl)oxalamide]: the EC50 is less than 0.05 µM.

As for `CC(C)C[C@H](NC(=O)C(=O)Nc1ccccc1C(C)(C)C)C(=O)N[C@@H](C[C@@H]1CCNC1=O)C(=O)COc1c(F)c(F)cc(F)c1F` [Compound 33, N1-(2-(tert-butyl)phenyl)-N2-((S)-4-methyl-1-oxo-1-(((S)-3-oxo-1-((S)-2-oxopyrrolidin-3-yl)-4-(2,3,5,6-tetrafluorophenoxy)butan-2-yl)amino)pentan-2-yl)oxalamide], the EC50 was less than 0.05 µM.

As for `O=C1NCC[C@H]1C[C@H](NC(=O)[C@@H]1CC2(CC2)CN1C(=O)C(O)CC(C(F)(F)F)C(F)(F)F)C(=O)COC(F)(F)F` (stereo partly drawn) [Compound 389, (6S)-N-((S)-3-oxo-1-((S)-2-oxopyrrolidin-3-yl)-4-(trifluoromethoxy)butan-2-yl)-5-(5,5,5-trifluoro-2-hydroxy-4-(trifluoromethyl)-pentanoyl)-5-azaspiro[2.4]heptane-6-carboxamide], the EC50 is less than 0.05 µM.

The same assay, now with this note: Severe acute respiratory syndrome coronavirus 2, HeLa-ACE2, 24 h, HeLa-ACE2 cells, SARS-CoV-2 infection, 24 h; read-out: EC50, uM (Hela).
For `CN(C(=O)C(=O)NC(C)(C)C)[C@H](C(=O)N[C@@H](C[C@@H]1CCNC1=O)C(=O)COC(F)(F)F)C1CCCC1` [Compound 529, N1-(tert-butyl)-N2-((S)-1-cyclopentyl-2-oxo-2-(((S)-3-oxo-1-((S)-2-oxopyrrolidin-3-yl)-4-(trifluoromethoxy)butan-2-yl)amino)ethyl)-N2-methyloxalamide], the EC50 is 0.05 to 0.2 µM.

In the case of `CN(C)S(=O)(=O)NCC(=O)N1CC2(CC2)C[C@H]1C(=O)N[C@@H](C[C@@H]1CCNC1=O)C(=O)COC(F)(F)F` [Compound 692, (S)-5-((N,N-dimethylsulfamoyl)glycyl)-N-((S)-3-oxo-1-((S)-2-oxopyrrolidin-3-yl)-4-(trifluoromethoxy)butan-2-yl)-5-azaspiro[2.4]heptane-6-carboxamide], the EC50 is 0.2 to 0.5 µM.

Consider `CC(C)C[C@@H](N)C(=O)N1CC2(CC2)C[C@H]1C(=O)N[C@@H](C[C@@H]1CCNC1=O)C(=O)COC(F)(F)F` [Compound 644, (S)-5-(D-leucyl)-N-((S)-3-oxo-1-((S)-2-oxopyrrolidin-3-yl)-4-(trifluoromethoxy)butan-2-yl)-5-azaspiro[2.4]heptane-6-carboxamide], for which the EC50 lay within 0.2 to 0.5 µM.

As for `O=C1NCC[C@H]1C[C@H](NC(=O)[C@@H]1CC2(CC2)CN1C(=O)c1ccc(Cl)cc1F)C(=O)COC(F)(F)F` [Compound 702, (S)-5-(4-chloro-2-fluorobenzoyl)-N-((S)-3-oxo-1-((S)-2-oxopyrrolidin-3-yl)-4-(trifluoromethoxy)butan-2-yl)-5-azaspiro[2.4]heptane-6-carboxamide], the EC50 lay in the range of 0.05 to 0.2 µM.

Turning to `O=C1NCC[C@H]1C[C@H](NC(=O)[C@@H]1[C@H]2CCC[C@H]2CN1C(=O)c1noc2cc(Cl)ccc12)C(=O)COC(F)(F)F` [Compound 783, (1S,3aR,6aS)-2-(6-chlorobenzo[d]isoxazole-3-carbonyl)-N-((S)-3-oxo-1-((S)-2-oxopyrrolidin-3-yl)-4-(trifluoromethoxy)butan-2-yl)octahydrocyclopenta[c]pyrrole-1-carboxamide], the concentration giving a half-maximal response (EC50) is less than 0.05 µM.

For the molecule `O=C1NCC[C@H]1C[C@H](NC(=O)[C@@H]1CC2(CC2)CN1C(=O)C1(O)CC1)C(=O)COC(F)(F)F` [Compound 420, (S)-5-(l-hydroxycyclopropane-1-carbonyl)-N-((S)-3-oxo-1-((S)-2-oxopyrrolidin-3-yl)-4-(trifluoromethoxy)butan-2-yl)-5-azaspiro[2.4]heptane-6-carboxamide], the EC50 was in the range of 0.05 to 0.2 µM.

As to `O=C1NCC[C@H]1C[C@H](NC(=O)[C@@H]1CC2(CC2)CN1C(=O)[C@@H]1C[C@H]1C(F)(F)F)C(=O)COC(F)(F)F` [Compound 718, (S)-N-((S)-3-oxo-1-((S)-2-oxopyrrolidin-3-yl)-4-(trifluoromethoxy)butan-2-yl)-5-((1R,2R)-2-(trifluoromethyl)cyclopropane-1-carbonyl)-5-azaspiro[2.4]heptane-6-carboxamide], the EC50 is less than 0.05 µM.

For `O=C1NCC[C@H]1C[C@H](NC(=O)[C@@H]1[C@H]2CCC[C@H]2CN1C(=O)c1csc(C(F)(F)F)n1)C(=O)COC(F)(F)F` [Compound 476, (1S,3aR,6aS)-N-((S)-3-oxo-1-((S)-2-oxopyrrolidin-3-yl)-4-(trifluoromethoxy)butan-2-yl)-2-(2-(trifluoromethyl)-thiazole-4-carbonyl)-octahydrocyclo-penta[c]pyrrole-1-carboxamide], the EC50 is less than 0.05 µM.

On to `CC(C)C[C@@H](O)C(=O)N1CCC(C)(C)C[C@H]1C(=O)N[C@@H](C[C@@H]1CCNC1=O)C(=O)COC(F)(F)F` [Compound 641, (S)-1-((R)-2-hydroxy-4-methylpentanoyl)-4,4-dimethyl-N-((S)-3-oxo-1-((S)-2-oxopyrrolidin-3-yl)-4-(trifluoromethoxy)butan-2-yl)piperidine-2-carboxamide], for which the half-maximal effective concentration (EC50) was less than 0.05 µM.

Regarding `O=C1NCC[C@H]1C[C@H](NC(=O)[C@@H]1[C@H]2CCC[C@H]2CN1C(=O)c1noc2cc(Cl)ccc12)C(=O)COC(F)(F)F` [Compound 609, (1S,3aR,6aS)-2-(6-chlorobenzo[d]isoxazole-3-carbonyl)-N-((S)-3-oxo-1-((S)-2-oxopyrrolidin-3-yl)-4-(trifluoromethoxy)butan-2-yl)octahydrocyclopenta[c]pyrrole-1-carboxamide], the EC50 is less than 0.05 µM.

For `O=C1NCC[C@H]1C[C@H](NC(=O)[C@@H]1CC2(CC2)CN1C(=O)c1ccccc1C(F)(F)F)C(=O)COC(F)(F)F` [Compound 686, (S)-N-((S)-3-oxo-1-((S)-2-oxopyrrolidin-3-yl)-4-(trifluoromethoxy)butan-2-yl)-5-(2-(trifluoromethyl)benzoyl)-5-azaspiro[2.4]heptane-6-carboxamide], the EC50 is less than 0.05 µM.

Still in this assay, the particulars now being: Severe acute respiratory syndrome coronavirus 2, HeLa-ACE2, 24 h; […]; cells given as a bound; read-out: EC50, uM (Hela).
In the case of `CC(=O)N1CCC(NC(=O)C(=O)N[C@@H](CC(C)C)C(=O)N[C@@H](C[C@@H]2CCNC2=O)C(=O)COc2c(F)c(F)cc(F)c2F)CC1` [Compound 140, Nl-(l-acetylpiperidin-4-yl)-N2-((S)-4-methyl-1-oxo-1-(((S)-3-oxo-1-((S)-2-oxopyrrolidin-3-yl)-4-(2,3,5,6-tetrafluorophenoxy)butan-2-yl)amino)pentan-2-yl)oxalamide], the EC50 is more than 1 µM.

Staying with this assay, now noted: Severe acute respiratory syndrome coronavirus 2, HeLa-ACE2, 24 h; read-out: EC50, uM (Hela).
As to `O=C1NCC[C@H]1C[C@H](NC(=O)[C@@H]1CC2(CC2)CN1C(=O)C(F)(F)F)C(=O)COC(F)(F)F` [Compound 703, (S)-N-((S)-3-oxo-1-((S)-2-oxopyrrolidin-3-yl)-4-(trifluoromethoxy)butan-2-yl)-5-(2,2,2-trifluoroacetyl)-5-azaspiro[2.4]heptane-6-carboxamide], the EC50 fell in the range of 0.2 to 0.5 µM.
